Several values for one entry are separate records, joined by “and”; a condition that tells them apart may be missing. Identical values can stand only once.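 Following 48 hours of exposure in 96-well plates, responses at five concentrations were used to interpolate endpoints linearly. GI50 = concentration required for 50% inhibition of growth. Definition used: TGI = concentration required for complete inhibition of growth.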

The first test has as its system SK-OV-3 ovarian. In words: DTP human tumour cell line panel, 48 h.
`O=C1NC2(CCCC2)C(=O)C12CCCC2`: the concentration for total growth inhibition (TGI) (commonly the concentration giving total growth inhibition) was over 100 µM.

For `O=C1CCCN(c2ccccc2)N1`, the total growth inhibition concentration (TGI) is over 100 µM.

Turning to `CN(C)/C(=N/C(=S)Nc1ccccc1)SCc1ccccc1`, the TGI was over 100 µM.

As to `CCOC(=O)C1=C(C)Nc2ccccc2S1`, the concentration for total growth inhibition (TGI) is over 100 µM.

As for `C=CCSC[C@H](NC(=O)COc1ccccc1)C(=O)NC(C(=O)OCc1ccc([N+](=O)[O-])cc1)=C(C)C`, the concentration for total growth inhibition (TGI) is over 100 µM.

A further test concerns SNB-19 CNS. In words: DTP human tumour cell line panel, 48 h.
In the case of `CC(=O)OCC1OC(O[C@@H]2C[C@H]3C(C)(C)[C@H](OC(C)=O)CC[C@]3(C)[C@H]3CCC4=C([C@@H](C)C[C@@H](O)[C@H](O)C(C)(C)O)CC[C@@]4(C)[C@@]32C)C(O)C(O)C1O` (stereo partly specified), the GI50 (in general, the concentration that inhibits growth by half) is 14.3 µM and the concentration for total growth inhibition (TGI) turned out to be 27.7 µM.

Compound `CCOc1ccc(NC(=O)CC2Sc3ccccc3NC2=O)cc1` (stereo unspecified) came in with a TGI of over 100 µM.

Turning to `Cn1cc(NC(=O)c2cc(NC(=O)CCCCCCCCCCC(=O)Nc3cc(C(=O)Nc4cc(C(=O)NCCC(=N)N)n(C)c4)n(C)c3)cn2C)cc1C(=O)NCCC(=N)N`, the total growth inhibition concentration (TGI) is over 100 µM.

As for `C1COCCN1.C1COCCN1.N.N.[Cl-].[Pt+2]`, the GI50 was over 100 µM and the TGI was over 100 µM.

As to `Cc1ccccc1C(C#N)C(=O)C(=O)Nc1nc([N+](=O)[O-])cs1` (stereo unspecified), the TGI was over 100 µM.

With `C=C1C(=O)O[C@H]2[C@H]1CC/C(CNC(=O)c1c[nH]c3ccc(F)cc13)=C\CC[C@@]1(C)O[C@@H]21`, the GI50 is 11.9 µM and the total growth inhibition concentration (TGI) turned out to be 26.1 µM.

Compound `COC(=O)C(c1[nH]nc2ccccc12)C(C(=O)OC)c1[nH]nc2ccccc12` (stereo unspecified) returned a TGI of over 100 µM.

For `C#CCNC(=O)NC(CCCNC(=O)OCc1ccccc1)C(=O)OCc1ccccc1` (stereo unspecified), the TGI is over 100 µM.

As for `COc1ccc2cc1Oc1ccc(cc1)C[C@H]1c3cc(c(OC)cc3CCN1C)Oc1c(OC)c(OC)cc3c1[C@H](C2)N(C)CC3`, the GI50 is 7.55 µM; the TGI was 13 µM and 20.1 µM and 60.6 µM.

`O=c1[nH]c2ccccc2cc1C(Cl)=C(Cl)Cl` gave a TGI of over 100 µM.

In turn, `O=[N+]([O-])[C@@H]1C2C=CC(C2)[C@H]1Cl` (stereo partly specified) showed a TGI of over 100 µM.

`COC(=O)C(C#N)=C1c2ccccc2Oc2ccccc21` gave a total growth inhibition concentration (TGI) of over 100 µM.

In the case of `N#CC1(c2nc3ccccc3o2)C(=O)C(=O)N(C2C3CC4CC(C3)CC2C4)C(=O)C1=O` (stereo unspecified), the concentration for total growth inhibition (TGI) was over 100 µM.

`O=C1NC(c2ccc(O)cc2)C2CCC1C2` (stereo unspecified): the concentration for total growth inhibition (TGI) was over 100 µM.

With `C=CC1=CSNN1`, the total growth inhibition concentration (TGI) is over 100 µM.

`O=C(C#Cc1c[nH]c(=O)[nH]c1=O)c1ccccc1Cl` had a TGI of over 100 µM.

As to `CC(=O)OC1=C2CC3(C)OC(=O)CC(C)(C)C3=CC=C2C=C(C(C)C)C1=O` (stereo unspecified), the total growth inhibition concentration (TGI) stood at 3.28 µM.

`CCCCCCCCCCCCCCCC(=O)NCC(COP(=O)([O-])OCC[N+](C)(C)C)OCC` (stereo unspecified) gave a concentration for total growth inhibition (TGI) of 11 µM.

Consider `C=C1CCC2C(/C=C(\C)CCC1O)OC(=O)C2C` (stereo unspecified), for which the GI50 is over 100 µM and the total growth inhibition concentration (TGI) was over 100 µM.

Take `O=C1NC2(CCCC2)C(=O)C12CCCC2`: the TGI was over 100 µM.

In the case of `O=C1CCCN(c2ccccc2)N1`, the TGI was over 100 µM.

`CN(C)/C(=N/C(=S)Nc1ccccc1)SCc1ccccc1` showed a TGI of over 100 µM.

For `CCOC(=O)C1=C(C)Nc2ccccc2S1`, the TGI is over 100 µM.

In turn, `CCOC(=O)CC1=Nc2ccccc2SC1` came in with a TGI of over 100 µM.

In the next test the test system is TK-10 renal. The experiment in a line: DTP human tumour cell line panel, 48 h.
For the compound `C[C@@H]1CC[C@H]2C(COCC3=C(C(F)(F)F)O[C@@H]4O[C@@]5(C)CC[C@H]6[C@H](C)CC[C@@H]3[C@@]46OO5)=C(C(F)(F)F)O[C@@H]3O[C@@]4(C)CC[C@@H]1[C@]32OO4`, the GI50 is 0.143 µM and the concentration for total growth inhibition (TGI) was over 100 µM.

The compound `CCOc1ccc(NC(=O)CC2Sc3ccccc3NC2=O)cc1` (stereo unspecified) registered a TGI of over 100 µM.

On to `Cn1cc(NC(=O)c2cc(NC(=O)CCCCCCCCCCC(=O)Nc3cc(C(=O)Nc4cc(C(=O)NCCC(=N)N)n(C)c4)n(C)c3)cn2C)cc1C(=O)NCCC(=N)N`, for which the total growth inhibition concentration (TGI) was 87.9 µM.

For the compound `C1COCCN1.C1COCCN1.N.N.[Cl-].[Pt+2]`, the GI50 is over 100 µM and the concentration for total growth inhibition (TGI) was over 100 µM.

In the case of `Cc1ccccc1C(C#N)C(=O)C(=O)Nc1nc([N+](=O)[O-])cs1` (stereo unspecified), the concentration for total growth inhibition (TGI) was over 100 µM.

Turning to `COC(=O)C(c1[nH]nc2ccccc12)C(C(=O)OC)c1[nH]nc2ccccc12` (stereo unspecified), the TGI is over 100 µM.

In the case of `C#CCNC(=O)NC(CCCNC(=O)OCc1ccccc1)C(=O)OCc1ccccc1` (stereo unspecified), the total growth inhibition concentration (TGI) was over 100 µM.

In the case of `COc1ccc2cc1Oc1ccc(cc1)C[C@H]1c3cc(c(OC)cc3CCN1C)Oc1c(OC)c(OC)cc3c1[C@H](C2)N(C)CC3`, the GI50 was 12.7 µM; the TGI was 15.6 µM and 25.2 µM and 53.5 µM.

`O=c1[nH]c2ccccc2cc1C(Cl)=C(Cl)Cl` displayed a TGI of over 100 µM.

The compound `O=[N+]([O-])[C@@H]1C2C=CC(C2)[C@H]1Cl` (stereo partly specified) displayed a concentration for total growth inhibition (TGI) of over 100 µM.

With `COC(=O)C(C#N)=C1c2ccccc2Oc2ccccc21`, the concentration for total growth inhibition (TGI) was over 100 µM.

`N#CC1(c2nc3ccccc3o2)C(=O)C(=O)N(C2C3CC4CC(C3)CC2C4)C(=O)C1=O` (stereo unspecified) came in with a concentration for total growth inhibition (TGI) of over 100 µM.

`O=C1NC(c2ccc(O)cc2)C2CCC1C2` (stereo unspecified) displayed a TGI of over 100 µM.

The compound `CCOC(=O)C1(CC)CCCCC(=O)N1` (stereo unspecified) had a TGI of over 100 µM.

Compound `C=CC1=CSNN1` yielded a TGI of over 100 µM.

In the case of `O=C(C#Cc1c[nH]c(=O)[nH]c1=O)c1ccccc1Cl`, the TGI amounted to 36.1 µM.

In the case of `CC(=O)OC1=C2CC3(C)OC(=O)CC(C)(C)C3=CC=C2C=C(C(C)C)C1=O` (stereo unspecified), the TGI amounted to 2.51 µM. Compared with the last compound, the TGI is about 14-fold lower.

`CCCCCCCCCCCCCCCC(=O)NCC(COP(=O)([O-])OCC[N+](C)(C)C)OCC` (stereo unspecified) gave a concentration for total growth inhibition (TGI) of 3.95 µM.

As for `C=C1CCC2C(/C=C(\C)CCC1O)OC(=O)C2C` (stereo unspecified), the GI50 was over 100 µM and the TGI was over 100 µM.

`O=C1NC2(CCCC2)C(=O)C12CCCC2` showed a concentration for total growth inhibition (TGI) of over 100 µM.

The compound `CN(C)/C(=N/C(=S)Nc1ccccc1)SCc1ccccc1` displayed a TGI of over 100 µM.

Compound `CCOC(=O)C1=C(C)Nc2ccccc2S1` gave a TGI of over 100 µM.

In the case of `CCOC(=O)CC1=Nc2ccccc2SC1`, the TGI was over 100 µM.
